Test in all cases: Proliferation inhibition of cancer cells (propidium iodide fluorescence)
What all share (assay type): cell-based, human

Assay [1] has as its system UXF 1138L. As to conditions: Homo sapiens, 96 h, UXF 1138L cell line, 4 days, read-out: IC50 value. On the procedure:
(§1) Using various human cancer cells in vitro, the concentrations of the test compounds (A, B, C, D, E, F), which inhibit the proliferation of cancer cells by 50% (IC50) and 70% (IC70) were determined. Specifically, each cell line of bladder cancer (BXF 1218L and T-24), glioblastoma (CNXF 498NL), colic cancer (HCT-116 and HT-29), gastric cancer (GXF 251 L), head and neck cancer (HNXF 536L), non small cell lung cancer (LXF 1121L, LXF 289L, LXF 526L, LXF 529L, LXF 629L and H-460), mammary cancer (MAXF 401NL, MCF-7, MDA-231 and MDA-468), melanoma (MEXF 276L, MEXF 394NL, MEXF 462NL, MEXF 514L and MEXF 520L), ovary cancer (OVXF 1619L, OVXF 899L and OVCAR-3), pancreatic cancer (PAXF 1657L and PANC-1), prostate cancer (22Rv1, DU-145, LNCaP and PC3M), pleuramesothelioma (PXF 1752L), renal cancer (RXF 1781 L, RXF 393NL, RXF 486L and RXF 944L), and uterine cancer (UXF 1138L) is added to a 96-well microtiter plate at a density of 3.6-11.2x10^3 cells per well in RPMI-1640 medium containing 10% fetal calf serum and 0.1% gentamicin and incubated for 24 hours. After 24 hours RPMI-1640 medium containing 10% fetal calf serum and 0.1% gentamicin, together with a test compound, is added thereto. Then, this plate is incubated at 37°C for 4 days in a humidified atmosphere of air containing 5% CO2. Thereafter, the cell culture medium with or without drug was replaced by 200 µl of an aqueous PI solution (7 µg/ml propidium iodide). Applying a freeze thaw cycle to permeabilize intact cell walls, staining of DNA was achieved, and the fluorescence of each well was measured using the Cy-tofluor 4000 microplate reader (excitation 530 nm, emission 620 nm), giving a direct relationship to the total cell number. Proliferation inhibition is expressed as test versus untreated control (T/C-value [%]). IC50 and IC70 values were determined by plotting compound concentration versus cell viability.

The subject of assay [2] is MAXF 401NL. As to conditions: Homo sapiens, 96 h, MAXF 401NL cell line, 4 days, read-out: IC50 value. On the procedure:
as §1

Assay [3] has as its system LXFL 529L. Conditions: Homo sapiens, 96 h, LXFL 529L cell line, 4 days, read-out: IC50 value. On the procedure:
as §1

Assay [4] deals with RXF 486L. Conditions: Homo sapiens, 96 h, RXF 486L cell line, 4 days, read-out: IC50 value. On the procedure:
as §1

Assay [5] deals with MEXF 462NL. As to conditions: Homo sapiens, 96 h, MEXF 462NL cell line, 4 days, read-out: IC50 value. On the procedure:
as §1

Assay [6] relates to GXF 251 L. Conditions: Homo sapiens, 96 h, GXF 251L cell line, 4 days, read-out: IC50 value. On the procedure: as §1

Values after ≈ are worked out from the molar mass of the structure shown.

As to `CC1CC(O)C(O)C2(O1)OC1CC(=O)OC1C1=C2C(=O)c2c(O)cccc2C1=O` (stereo not drawn) [Compound A, deacetylgriseusin A, reference compound], the IC50 (as a rule, the point on the concentration scale where inhibition reaches its midpoint) was 8.08 µg/mL (≈ 20.1 µM) in assay [1]; 0.345 µg/mL (≈ 0.857 µM) in assay [2]; 8.95 µg/mL (≈ 22.2 µM) in assay [3]; 1.11 µg/mL (≈ 2.77 µM) in assay [4]; 1.13 µg/mL (≈ 2.8 µM) in assay [5]; 3.06 µg/mL (≈ 7.62 µM) in assay [6].

In the case of `COC(=O)CC1OC2(OC(C)CC(O)C2O)C2=C(C(=O)c3cccc(O)c3C2=O)C1O` (stereo not drawn) [Compound E, 4-hydroxy-deacetylgriseusin B methylester], the IC50 in assay [1] was determined as 0.377 µg/mL (≈ 0.868 µM); in assay [2], 0.046 µg/mL (≈ 0.106 µM); in assay [3], 3.87 µg/mL (≈ 8.9 µM); in assay [4], 0.288 µg/mL (≈ 0.663 µM); in assay [5] it was 0.094 µg/mL (≈ 0.216 µM); in assay [6], 0.393 µg/mL (≈ 0.905 µM).

On to `COC(=O)CC1OC2(OC(C)CC(=O)C2O)C2=C(C(=O)c3cccc(O)c3C2=O)C1O` (stereo not drawn) [Compound F, 4'-dehydro-4-hydroxy-deacetylgriseusin B methylester], for which the IC50 in assay [1] came out at 0.302 µg/mL (≈ 0.698 µM); in assay [2], 0.034 µg/mL (≈ 0.0786 µM); in assay [3] it was 0.158 µg/mL (≈ 0.365 µM); in assay [4], 0.053 µg/mL (≈ 0.123 µM); in assay [5], 0.029 µg/mL (≈ 0.0671 µM); in assay [6], 0.037 µg/mL (≈ 0.0856 µM).

Values taken from EP1650209A1, “Griseusin derivatives and their use as antitumor agents” (Oncotest GmbH, priority 2004, dated 2006).
